Melting point data for four compounds are collected here from patent US20090312322A1, “Use of Oxindole Derivatives in the Treatment of Dementia Related Diseases, Alzheimer's Disease and Conditions Associated with Glycogen Synthase Kinase-3” (AstraZeneca AB, priority 2001, published 2009).

Usually melting point stands for the temperature of the solid-liquid transition.

Structures are written as SMILES.

`COc1cc2c(C3C(=O)Nc4c(F)cccc43)ncnc2cc1OCCCN1CCOCC1.Cl.Cl` (stereo not shown) showed a melting point of 211 to 214 °C.
As to `CN1CCN(CCCOc2ccc3c(C4C(=O)Nc5ccc(C#N)cc54)ncnc3c2)CC1.Cl.Cl` (stereo not shown), the melting point is 200 °C (dec.).
With `CN(C)C(=O)c1ccc2c(c1)C(c1ncnc3cc(OCCCN4CCOCC4)ccc13)C(=O)N2` (stereo not shown) [Example 43, 3-[7-(3-Morpholin-4-yl-propoxy)quinazolin-4-yl]-2-oxo-2,3-dihydro-1H-indole-5-carboxylic acid dimethylamide] the figure was 167.5 to 168.7 °C.
With `CNC(=O)c1ccc2c(c1)C(c1ncnc3cc(OCCCN4CCOCC4)ccc13)C(=O)N2` (stereo not shown) [Example 44, 3-[7-(3-Morpholin-4-yl-propoxy)-quinazolin-4-yl]-2-oxo-2,3-dihydro-1H-indole-5-carboxylic acid methylamide] the figure was 195 to 198 °C.
